According to patent US10781185B2, “Heterocyclic compounds for the inhibition of PASK” (BioEnergenix LLC, priority 2009, dated 2020):

Experiments:
PASK [1] = molecular target: PASK (Homo sapiens (Human), UniProt Q96RG2); test: PAS Kinase FRET Assay; assay type: biochemical; settings: TR-FRET, Ulight-peptide substrate; read-out: IC50 Kinase Domain
From the text: PAS Kinase FRET Assay The aim of the FRET assay is to determine the inhibition potential of test compounds on targeted kinase. This assay platform provides a homogenous screening method for measuring kinase activity by quantitating the amount of phospho-substrate in solution following a kinase reaction. In the presence of kinase and ATP, the Ulight-peptide is phosphorylated and captured by an anti-phospho-substrate antibody, which brings the Eu chelate donor and Ulight acceptor dyes into close proximity. […] The contents of the plate were and incubated at RT for 1 h. The reaction was stopped by adding 5 μl of stop solution to each test well followed by mixing and incubation at RT for 10 minutes. 5 μl of detection mix (detection antibody diluted in detection buffer) was added; the contents of the plate were mixed and then incubated in the dark for 1 hour at RT. […] The results were graphed to calculate the EC50. Titration of ATP at the EC50 concentration of kinase to determine ATP Km,app. was performed using the following method. […] The contents of the plate were and incubated at RT for 1 h. The reaction was stopped by adding 5 μl of stop solution to each test well followed by mixing and incubation at RT for 10 minutes. 5 μl of detection mix (detection antibody diluted in detection buffer) was added; the contents of the plate were mixed and then incubated in the dark for 1 hour at RT. […] The results were graphed to calculate the EC50 as the ATP Km,app. […] If compound is not soluble under this condition, it was diluted to 3 mM. Kinase reaction buffer was prepared containing 10 mM MgCl2, 50 mM HEPES, 1 mM EGTA, 0.01% TWEEN-20, 2 mM DTT. […] As a positive control, 2.5 μl of positive compound was added to assay wells, and 2.5 μl of DMSO to assay wells as vehicle control. Kinase solution was prepared in reaction buffer at 2× final assay concentration. Kinase solution (5 μl) was added to each well of the assay plate. The substrate and ATP solution was prepared in kinase reaction buffer at 4× final assay concentration. The kinase reaction was started by adding 2.5 μl of substrate+ATP mix solution to each well of the assay plate. The plate is mixed on a plate shaker; then covered and allowed to react for 2 hours in the dark at 25° C. without shaking. The reaction was stopped by adding 5 μl of stop solution to each test well followed by mixing and incubation at RT for 10 minutes in the dark. 5 μl of detection mix (detection antibody diluted in detection buffer) was added; the contents of the plate were mixed and then incubated in the dark for 1 hour at RT.

PASK [2] = molecular target: PASK (UniProt # Q96RG2; human recombinant N-terminal GST tagged construct, residues 879-1323) (Homo sapiens (Human), UniProt Q96RG2); test: PASK ATP Radiochemical Assay; assay type: biochemical; settings: 33P-ATP radiochemical, Myelin Basic Protein substrate; read-out: IC50 Kinase Domain
Procedure: PASK ATP Radiochemical Assay
Test compounds in DMSO are then added and the mixture, followed by delivery of ^33P-ATP (specific activity 0.01 μCi/μl final) to initiate the reaction. […] The entire reaction mixture is washed through onto a P81 Phosphocellulose paper and washed three times for 10 minutes in 75 mM phosphoric acid and once in methanol prior to drying and scintillation counting.

[3] = test system: C57Bl6 mice fed a high fat diet; test: Mouse High Fat Dietary Model with fast/re-feed; assay type: in vivo; settings: for reduction in body weight vs vehicle: fast/re-feed mice
Procedure: Mouse High Fat Dietary Model
A standard model of human hyperlipidemia and insulin resistance is the mouse fed a high fat diet for several weeks (31, 33). Additionally, since hepatic lipid synthesis is known to be regulated by food consumption, the fast/re-feed cycle of Horton et al. (32) was incorporated into the chronic high fat diet model. The compound was evaluated in this model as an agent to restore insulin sensitivity and lower blood lipids. The chronic high fat diet was fed to mice to simulate a standard Western diet which is elevated in calories from high fat and carbohydrate intake. This and similar models of dietary induced obesity, insulin insensitivity and elevated serum lipids and cholesterol are used as mouse and rat models of human pathology including hyperlipidemia, type II diabetes, atherosclerosis, obesity, cardiovascular and liver disease. These models have been used as excellent predictors of efficacy in human clinical trials (PPAR and FXR agonists).
The farnesoid X receptor (FXR) is a ligand-activated transcription factor and a member of the nuclear receptor superfamily. […] While the mechanism of action of FXR agonists is clearly distinct from PASK inhibition, WAY-362450 has been used as a positive control compound producing physiologically beneficial changes in glucose and lipid metabolism resembling inhibition of PASK. Throughout these in vivo assays, WAY-362450 has been used as a control compound, and will be referred to as such.
Male C57Bl6 mice were obtained from Jackson Laboratories and had been fed a high fat diet (60% kcal fat) for eight weeks. The mice were fed an identical high fat diet (Research Diet D12492) upon arrival and during the study. All mice were treated with the subject compound at 30 or 100 mg/kg, control compound (WAY-362450) at 30 mg/kg or vehicle by oral gavage daily for three days. On the final day, 10 animals from each group began an 24 hour fast and then were sacrificed (fasted groups 1a,2a,3a,4a). Alternatively, 10 animals from each group underwent a 24 hour fast followed by a 12 hour re-feed period with the same high fat diet ad libitum and then were sacrificed (re-fed groups 1b,2b,3b,4b).
(§1) Body weights were monitored at the start and end of the protocol. After completing the fast or fast/re-feed conditions, the mice were given avertin for anesthesia by intraperitoneal administration. Whole blood was collected by cardiac puncture and the mice were terminated by cervical dislocation. Livers were collected surgically, weighed and immediately frozen in liquid nitrogen. The blood was placed in Li-heparin treated tubes, centrifuged to collect plasma and the plasma frozen.
The plasma was analyzed by standard colorimetric assays for glucose, insulin, triglycerides and cholesterol. Frozen liver samples were pulverized and extracted in ethanolic KOH and analyzed for liver triglycerides and cholesterol.

[4] = test system: Sprague Dawley rats on a high fructose diet; test: Rat High Fructose Model with Fast/Re-Feed; assay type: in vivo; settings: for body weight change relative to the Vehicle group: FIG. 1; for decrease in plasma glucose compared to vehicle / reduction in plasma insulin levels: after fast and re-feed
Procedure: Rat High Fructose Model with Fast/Re-Feed
Another standard model of human hyperlipidemia and insulin resistance is the rat fed a high fructose diet for several weeks (33). Additionally, since hepatic lipid synthesis is known to be regulated by food consumption, the fast/reefed cycle of Horton et al. (32) was incorporated into the chronic high fructose diet model. A compound disclosed above was evaluated in this model as an agent to restore insulin sensitivity and lower blood lipids.
Eight week old male Sprague Dawley rats were purchased from Harlan, Inc. The rats weighed 200-225 g upon arrival and were divided into groups as detailed in Table 2 and were immediately placed on a high fructose diet (60% kcal fructose; Open Source Diet # D00111301) ad libitum for three weeks. During the last week of feeding the high fructose diet, the rats were dosed with vehicle (5% solutol, 8% β cyclo-dextrin), subject compound at 30 mg/kg or 100 mg/kg or the control compound at 30 mg/kg by oral gavage once daily for 7 days. On the final day, all animals were placed on a […] followed by a 12 hour re-feed period on the high fructose diet ad libitum.
as §1, with “throughout” for “at the start and end of”, “rats” for “mice”
The plasma was analyzed by standard colorimetric assays for glucose, insulin, triglycerides and cholesterol.

[5] = 30 mg/kg oral gavage daily for three days
[6] = fasted and re-fed mice, 30 mg/kg
[7] = fasted only mice, 30 mg/kg oral gavage daily for three days
[8] = 30 mg/kg oral gavage once daily for 7 days

PASK (Homo sapiens (Human), UniProt Q96RG2), sequence (Q96RG2 999-1251): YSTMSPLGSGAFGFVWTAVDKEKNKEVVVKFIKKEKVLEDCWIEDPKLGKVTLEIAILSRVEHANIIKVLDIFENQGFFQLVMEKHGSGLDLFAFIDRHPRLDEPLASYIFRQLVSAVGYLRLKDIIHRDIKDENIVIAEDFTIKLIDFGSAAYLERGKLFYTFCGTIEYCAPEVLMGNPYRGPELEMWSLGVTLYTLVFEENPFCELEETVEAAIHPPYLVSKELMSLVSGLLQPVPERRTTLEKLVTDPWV
PASK (UniProt # Q96RG2; human recombinant N-terminal GST tagged construct, residues 879-1323) (Homo sapiens (Human), UniProt Q96RG2), sequence (Q96RG2 879-1323, change not shown): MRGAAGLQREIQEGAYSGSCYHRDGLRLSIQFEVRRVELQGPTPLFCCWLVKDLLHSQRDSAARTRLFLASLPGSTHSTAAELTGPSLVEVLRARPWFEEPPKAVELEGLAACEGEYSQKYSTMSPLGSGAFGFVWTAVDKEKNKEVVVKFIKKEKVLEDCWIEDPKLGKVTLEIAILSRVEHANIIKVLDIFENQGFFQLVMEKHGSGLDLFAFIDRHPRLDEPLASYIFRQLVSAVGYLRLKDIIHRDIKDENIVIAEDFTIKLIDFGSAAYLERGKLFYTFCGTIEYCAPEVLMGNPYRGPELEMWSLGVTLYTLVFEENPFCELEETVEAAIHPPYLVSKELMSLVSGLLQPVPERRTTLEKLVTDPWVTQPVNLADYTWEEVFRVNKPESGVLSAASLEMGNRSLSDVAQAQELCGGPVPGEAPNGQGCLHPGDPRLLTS

SMILES: CC(C)N(C)c1nc2cc(C(=O)O)ccc2nc1-c1ccc2c(c1)OCO2 [Example 77, 2-(Benzo[d][1,3]dioxol-5-yl)-3-(isopropyl(methyl)amino)quinoxaline-6-carboxylic acid]
- IC50 (PASK [1]): ≤ 10 µM
- IC50 (PASK [2]): < 10 µM

SMILES: COCC1CCCN(c2nc3cc(C(=O)O)ccc3nc2-c2ccc(F)cc2)C1 (stereo not shown) [Example 78, 2-(4-Fluorophenyl)-3-(3-(methoxymethyl)piperidin-1-yl)quinoxaline-6-carboxylic acid]
- IC50 (PASK [1]): ≤ 10 µM
- IC50 (PASK [2]): < 10 µM

SMILES: CC1(C)CCCN(c2nc3cc(C(=O)O)ccc3nc2-c2ccc(F)cc2)C1 [Example 79, 3-(3,3-Dimethylpiperidin-1-yl)-2-(4-fluorophenyl)quinoxaline-6-carboxylic acid]
- IC50 (PASK [1]): ≤ 10 µM
- IC50 (PASK [2]): < 10 µM

SMILES: CC1CCCN(c2nc3cc(C(=O)O)ccc3nc2-c2ccc(F)cc2)C1 (stereo not shown) [Example 80, 2-(4-Fluorophenyl)-3-(3-methylpiperidin-1-yl)quinoxaline-6-carboxylic acid]
- IC50 (PASK [1]): ≤ 10 µM
- IC50 (PASK [2]): < 10 µM

SMILES: CC(C)N(C)c1nc2cc(C(=O)O)ccc2nc1-c1ccc2c(c1)OCCO2 [Example 81, 2-(2,3-Dihydrobenzo[b][1,4]dioxin-6-yl)-3-(isopropyl(methyl)amino)quinoxaline-6-carboxylic acid]
- IC50 (PASK [1]): ≤ 10 µM
- IC50 (PASK [2]): < 10 µM

SMILES: C[C@H]1CCCN1c1nc2cc(C(=O)O)ccc2nc1-c1ccc2c(c1)OCO2 [Example 83, 2-(Benzo[d][1,3]dioxol-5-yl)-3-((S)-2-methylpyrrolidin-1-yl)quinoxaline-6-carboxylic acid]
- IC50 (PASK [1]): ≤ 10 µM
- IC50 (PASK [2]): < 10 µM

SMILES: CC(C)N(C)c1nc2cc(C(=O)O)ccc2nc1-c1ccc2[nH]ccc2c1 [Example 84, 2-(1H-Indol-5-yl)-3-(isopropyl(methyl)amino)quinoxaline-6-carboxylic acid]
- IC50 (PASK [1]): ≤ 10 µM
- IC50 (PASK [2]): < 10 µM

SMILES: CC(C)N(C)c1nc2cc(C(=O)O)ccc2nc1-c1ccncc1 [Example 87, 3-(Isopropyl(methyl)amino)-2-(pyridin-4-yl)quinoxaline-6-carboxylic acid]
- IC50 (PASK [1]): ≤ 10 µM
- IC50 (PASK [2]): < 10 µM

SMILES: CC(C)N(C)c1nc2cc(C(=O)O)ccc2nc1-c1cc2ccccc2o1 [Example 89, 2-(Benzofuran-2-yl)-3-(isopropyl(methyl)amino)quinoxaline-6-carboxylic acid]
- IC50 (PASK [1]): ≤ 10 µM
- IC50 (PASK [2]): < 10 µM

SMILES: CC(C)OC(=O)C1=CN(C(=O)c2ccc(F)c(F)c2)CC(C)(C)c2c1[nH]c1ccccc21 [WAY-362450, reference compound]
- effects on liver weight ([3]; 30 mg/kg): identical to those of the subject compound at the same dose
- increase in plasma glucose vs vehicle ([3]; fast and re-feed mice, 30 mg/kg): 7.6%
- reduction in body weight vs vehicle [3, 5]: 6.5%
- decrease in plasma insulin vs vehicle [3, 6]: 22%
- decrease in plasma glucose vs vehicle ([3]; fasted only mice, 30 mg/kg): 19%
- decrease in plasma insulin vs vehicle ([3]; fasted only mice, 30 mg/kg): 39%
- decrease in body weight vs vehicle [3, 7]: 4%
- body weight change relative to the Vehicle group [4, 8]: significant increase in body weight
- increase in plasma cholesterol vs vehicle ([4]; 30 mg/kg, 7 days): 17%
- reduction in plasma triglycerides vs vehicle ([4]; 30 mg/kg, 7 days): 68%
- decrease in plasma glucose compared to vehicle ([4]; 30 mg/kg, 7 days): did not alter plasma glucose concentrations
- reduction in plasma insulin levels ([4]; 30 mg/kg, 7 days): 63.2%

SMILES: CC(C)N(C)c1nc2cc(C(=O)O)ccc2nc1-c1ccc(F)cc1 [subject compound]
- reduction in liver weight ([3]; 30 and 100 mg/kg, trend of dose dependent reductions): 7-9%
- decrease in plasma glucose vs vehicle ([3]; fast and re-feed mice, highest dose 100 mg/kg): up to 21%
- reduction in body weight vs vehicle [3, 5]: 2.7%
- reduction in body weight vs vehicle ([3]; 100 mg/kg oral gavage daily for three days): 5.1%
- decrease in plasma insulin vs vehicle [3, 6]: 10%
- decrease in plasma insulin vs vehicle ([3]; fasted and re-fed mice, 100 mg/kg): 28%
- decrease in plasma glucose vs vehicle ([3]; fasted only mice, 30 mg/kg): 30%
- decrease in body weight vs vehicle [3, 7]: 1.8%
- decrease in plasma glucose vs vehicle ([3]; fasted only mice, 100 mg/kg): 43%
- decrease in body weight vs vehicle ([3]; fasted only mice, 100 mg/kg oral gavage daily for three days): 5.1%
- decrease in plasma insulin vs vehicle ([3]; fasted only mice, 30 and 100 mg/kg): up to 26%
- body weight change relative to the Vehicle group [4, 8]: modest increase in body weight
- decrease in plasma cholesterol vs vehicle ([4]; 30 mg/kg, 7 days): 5.7%
- reduction in plasma triglycerides vs vehicle ([4]; 30 mg/kg, 7 days): 25.1%
- decrease in plasma glucose compared to vehicle ([4]; 30 mg/kg, 7 days): 21.5%
- reduction in plasma insulin levels ([4]; 30 mg/kg, 7 days): 15.4%
- body weight change relative to the Vehicle group ([4]; 100 mg/kg oral gavage once daily for 7 days): modest decrease in body weight
- decrease in plasma cholesterol vs vehicle ([4]; 100 mg/kg, 7 days): 10%
- maximal reduction in liver weight ([4]; 100 mg/kg, 7 days): about 4%
- reduction in plasma triglycerides vs vehicle ([4]; 100 mg/kg, 7 days): 54.3%
- decrease in plasma glucose compared to vehicle ([4]; 100 mg/kg, 7 days): 26.3%
- reduction in plasma insulin levels ([4]; 100 mg/kg, 7 days): 31.4%
